Results on 2 compounds are retold here after ChEMBL document CHEMBL1201862, “PubChem BioAssay data set” (2004).

A short description of test [1]: non-specific 3'UTR reporter inhibition in Clone20-Shn3RL – cell-based, Renilla luciferase, cherry-picked, counter-screen for Shn3 inhibitor project, dose response (AID 624133). The class given is functional. (A counterscreen serves to expose hits that act by an unwanted route or on another target.)
The nature of another test: cells. The class given is functional, cell-based.
In the next test the test system is Jurkat. Description: SAR Analysis of small molecule inhibitors of T-cell specific antigen receptor-induced NF-kB activation in a Jurkat cell line using a luminescence assay - Set 2. [Related pubchem assays (depositor defined):AID435003, AID435012, AID465]. The class given is functional, cell-based. The settings on record: Homo sapiens.
The target in test [2] is Tyrosyl-DNA phosphodiesterase 2 (Homo sapiens, UniProt O95551). The test is described as follows: potency against TDP2 phosphodiesterase activity – biochemical, epi absorbance, IC50, dose response (AID 743297).
Chain of Tyrosyl-DNA phosphodiesterase 2 (O95551 whole entry): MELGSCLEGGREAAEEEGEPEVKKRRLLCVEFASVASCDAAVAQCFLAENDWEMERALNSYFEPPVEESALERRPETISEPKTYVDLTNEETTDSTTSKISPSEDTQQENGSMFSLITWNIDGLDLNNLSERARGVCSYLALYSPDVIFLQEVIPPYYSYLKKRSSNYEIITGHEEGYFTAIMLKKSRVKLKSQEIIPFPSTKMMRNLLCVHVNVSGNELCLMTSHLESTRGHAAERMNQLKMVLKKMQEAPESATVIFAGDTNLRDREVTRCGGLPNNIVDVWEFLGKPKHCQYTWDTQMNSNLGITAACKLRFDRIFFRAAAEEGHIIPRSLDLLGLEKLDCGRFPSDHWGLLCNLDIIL
Test [3] concerns the target Cystic fibrosis transmembrane conductance regulator/Golgi-associated PDZ and coiled-coil motif-containing protein (Homo sapiens, UniProt P13569+Q9HD26). Description: potency against CAL PDZ-peptide interaction – biochemical, fluorescence polarization, Cerulean-tagged CAL PDZ, cherry-picks, dose response (AID 504773). Background: In fluorescence polarisation assays a small probe gives low polarisation when free and higher when bound to something large.

The target in a further test is T1, Insulin-degrading enzyme (Homo sapiens, UniProt P14735).
T1 sequence (P14735 whole entry): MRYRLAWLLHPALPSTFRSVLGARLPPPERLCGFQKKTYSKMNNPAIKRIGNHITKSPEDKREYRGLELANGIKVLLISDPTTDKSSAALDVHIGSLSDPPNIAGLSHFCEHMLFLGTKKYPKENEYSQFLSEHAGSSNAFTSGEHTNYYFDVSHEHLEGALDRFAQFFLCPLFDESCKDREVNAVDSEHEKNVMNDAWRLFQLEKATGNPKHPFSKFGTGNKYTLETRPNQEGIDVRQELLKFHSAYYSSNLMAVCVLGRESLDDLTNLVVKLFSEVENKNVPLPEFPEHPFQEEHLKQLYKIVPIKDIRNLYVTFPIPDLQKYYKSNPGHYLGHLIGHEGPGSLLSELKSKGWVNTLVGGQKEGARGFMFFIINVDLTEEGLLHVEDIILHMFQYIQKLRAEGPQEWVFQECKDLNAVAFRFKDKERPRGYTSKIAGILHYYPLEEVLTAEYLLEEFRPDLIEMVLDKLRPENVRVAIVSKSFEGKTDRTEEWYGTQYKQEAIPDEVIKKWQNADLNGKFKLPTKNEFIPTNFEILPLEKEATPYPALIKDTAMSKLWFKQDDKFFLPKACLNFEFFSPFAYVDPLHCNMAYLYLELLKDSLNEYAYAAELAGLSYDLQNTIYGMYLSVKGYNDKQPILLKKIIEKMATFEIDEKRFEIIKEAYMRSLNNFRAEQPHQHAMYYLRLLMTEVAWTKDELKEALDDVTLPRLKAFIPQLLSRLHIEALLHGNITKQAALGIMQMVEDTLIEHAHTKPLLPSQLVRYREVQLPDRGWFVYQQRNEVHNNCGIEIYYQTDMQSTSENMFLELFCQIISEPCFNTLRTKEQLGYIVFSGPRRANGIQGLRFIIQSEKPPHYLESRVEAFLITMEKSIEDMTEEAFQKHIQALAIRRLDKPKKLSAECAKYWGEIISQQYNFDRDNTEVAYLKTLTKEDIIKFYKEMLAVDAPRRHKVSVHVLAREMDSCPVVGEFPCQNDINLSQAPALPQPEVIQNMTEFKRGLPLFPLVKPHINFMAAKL
The test is described as follows: recombinant IDE activation, cell-free – biochemical, fluorescence polarization, counter-screen for IDE activator project, dose response (AID 588681).

In another test the test system is HEK293. Description: optical interference in Abeta FP readout, dose response, artefact control for IDE activator project, biochemical, fluorescence polarization (AID 588442). The class given is functional, cell-based. The conditions noted are these: Homo sapiens.
Test [4] has as its target T2, Apoptotic protease-activating factor 1 (Homo sapiens, UniProt O14727).
T2 sequence (O14727 whole entry): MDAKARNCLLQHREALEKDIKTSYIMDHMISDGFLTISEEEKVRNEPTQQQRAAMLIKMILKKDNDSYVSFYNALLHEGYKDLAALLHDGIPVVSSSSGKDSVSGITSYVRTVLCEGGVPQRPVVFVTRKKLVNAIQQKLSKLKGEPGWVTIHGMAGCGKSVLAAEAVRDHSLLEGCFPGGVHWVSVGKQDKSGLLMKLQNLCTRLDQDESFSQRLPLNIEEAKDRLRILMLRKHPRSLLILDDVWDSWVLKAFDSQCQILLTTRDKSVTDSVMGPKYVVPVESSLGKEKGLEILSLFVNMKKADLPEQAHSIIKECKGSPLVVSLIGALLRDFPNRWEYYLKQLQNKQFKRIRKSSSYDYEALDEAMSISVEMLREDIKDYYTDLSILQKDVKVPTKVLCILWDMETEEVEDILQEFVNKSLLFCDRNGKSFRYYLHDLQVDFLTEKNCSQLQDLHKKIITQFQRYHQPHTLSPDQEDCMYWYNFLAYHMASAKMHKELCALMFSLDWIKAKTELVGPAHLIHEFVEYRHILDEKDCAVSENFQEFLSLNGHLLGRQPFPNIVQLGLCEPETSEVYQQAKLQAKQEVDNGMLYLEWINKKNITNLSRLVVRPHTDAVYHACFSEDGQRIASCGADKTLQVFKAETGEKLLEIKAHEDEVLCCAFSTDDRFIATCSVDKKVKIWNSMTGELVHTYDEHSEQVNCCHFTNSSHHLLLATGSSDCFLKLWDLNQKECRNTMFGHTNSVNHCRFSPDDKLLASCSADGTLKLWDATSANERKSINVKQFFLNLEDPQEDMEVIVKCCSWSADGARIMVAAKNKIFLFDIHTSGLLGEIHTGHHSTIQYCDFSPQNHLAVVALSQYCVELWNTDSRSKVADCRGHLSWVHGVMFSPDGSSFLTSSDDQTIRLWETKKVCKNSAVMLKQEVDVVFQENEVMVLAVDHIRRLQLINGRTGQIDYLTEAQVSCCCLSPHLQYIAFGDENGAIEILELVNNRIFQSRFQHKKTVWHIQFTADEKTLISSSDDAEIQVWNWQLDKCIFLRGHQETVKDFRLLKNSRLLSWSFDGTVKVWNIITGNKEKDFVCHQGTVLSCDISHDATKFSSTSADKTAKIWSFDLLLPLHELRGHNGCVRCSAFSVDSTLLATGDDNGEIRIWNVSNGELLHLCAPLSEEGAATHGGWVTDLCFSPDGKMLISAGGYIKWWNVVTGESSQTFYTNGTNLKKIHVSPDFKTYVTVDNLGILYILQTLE
The class given is functional.

SMILES strings stand for the structures. Activity calls are given as the source filed them.

Chain of Cystic fibrosis transmembrane conductance regulator/Golgi-associated PDZ and coiled-coil motif-containing protein (P13569 whole entry, other chains not shown): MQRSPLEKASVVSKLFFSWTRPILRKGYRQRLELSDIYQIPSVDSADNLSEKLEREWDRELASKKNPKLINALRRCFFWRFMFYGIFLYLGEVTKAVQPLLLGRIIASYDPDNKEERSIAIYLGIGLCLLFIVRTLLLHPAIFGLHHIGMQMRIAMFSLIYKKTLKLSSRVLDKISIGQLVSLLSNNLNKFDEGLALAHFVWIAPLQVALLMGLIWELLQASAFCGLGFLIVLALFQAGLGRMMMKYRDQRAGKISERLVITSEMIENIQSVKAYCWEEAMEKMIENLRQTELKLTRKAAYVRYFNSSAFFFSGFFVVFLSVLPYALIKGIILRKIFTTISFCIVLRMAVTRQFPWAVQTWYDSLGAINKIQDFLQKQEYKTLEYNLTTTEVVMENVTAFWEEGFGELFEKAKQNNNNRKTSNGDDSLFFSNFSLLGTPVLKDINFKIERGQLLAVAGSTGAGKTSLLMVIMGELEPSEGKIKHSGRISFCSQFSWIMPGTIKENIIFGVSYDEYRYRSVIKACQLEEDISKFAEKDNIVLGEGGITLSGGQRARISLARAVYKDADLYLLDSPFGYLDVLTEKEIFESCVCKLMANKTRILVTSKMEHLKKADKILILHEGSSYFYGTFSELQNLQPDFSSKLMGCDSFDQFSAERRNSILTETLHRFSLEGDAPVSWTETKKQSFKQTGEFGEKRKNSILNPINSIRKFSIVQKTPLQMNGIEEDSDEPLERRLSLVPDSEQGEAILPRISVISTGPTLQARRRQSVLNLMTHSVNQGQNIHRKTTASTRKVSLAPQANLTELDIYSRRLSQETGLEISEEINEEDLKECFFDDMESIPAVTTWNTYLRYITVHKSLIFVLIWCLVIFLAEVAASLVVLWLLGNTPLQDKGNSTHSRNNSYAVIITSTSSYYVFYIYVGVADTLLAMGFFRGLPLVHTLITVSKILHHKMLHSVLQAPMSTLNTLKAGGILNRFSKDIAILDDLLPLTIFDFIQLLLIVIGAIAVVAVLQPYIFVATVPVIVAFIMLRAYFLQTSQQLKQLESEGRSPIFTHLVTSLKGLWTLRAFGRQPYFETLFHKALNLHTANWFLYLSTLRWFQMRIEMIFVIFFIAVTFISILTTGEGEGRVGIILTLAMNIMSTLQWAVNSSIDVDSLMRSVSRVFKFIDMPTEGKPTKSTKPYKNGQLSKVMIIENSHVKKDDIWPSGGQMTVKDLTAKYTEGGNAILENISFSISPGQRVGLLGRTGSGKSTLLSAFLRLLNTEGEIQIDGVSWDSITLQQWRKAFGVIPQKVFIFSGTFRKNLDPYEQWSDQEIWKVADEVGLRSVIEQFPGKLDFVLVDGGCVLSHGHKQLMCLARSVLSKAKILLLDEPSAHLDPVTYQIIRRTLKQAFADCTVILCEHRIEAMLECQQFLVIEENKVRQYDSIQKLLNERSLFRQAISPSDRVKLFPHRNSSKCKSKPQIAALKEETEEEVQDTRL

Usually AC50 stands for the concentration at which the activity in the assay is half-maximal. The EC50 is the concentration needed to bring the measured effect to its halfway point. A word on the IC50: it is the concentration that gives 50% inhibition. Turning to `CCCCC(=O)NC(c1ccc(Cl)cc1)c1ccc2cccnc2c1O` (stereo not drawn), in test [1], the concentration at half-maximal activity (AC50) is 0.909 µM (active). Further, the EC50 in the test “cells” was 59.9 µM (active). For the same compound, the half-inhibitory concentration (IC50) in the test with Jurkat is 5.28 µM (active).

For `COc1ccc2noc3c2c1C(=O)c1ccccc1-3`, the IC50 was 65.7 µM (inactive) in test [2] and 42.5 µM (active) in test [4]. Besides, in test [3], the AC50 was > 500 µM (inactive). Besides, the EC50 on Insulin-degrading enzyme and with HEK293 was > 54.7 µM (inactive) throughout.
